The results in this text go back to patent US10940139B2, “Compounds that interact with the Ras superfamily for the treatment of cancers, inflammatory diseases, rasopathies, and fibrotic disease” (Shy Therapeutics LLC, priority 2017, dated 2021).

Experiment in all cases: Ras GTP binding domain inhibition assay (labeled GTP)
For assay [1], the target named is KRas Q61H mutant (Homo sapiens (Human), UniProt P01116, Q61H). To be noted: 20 μM compound. Summed up:
(§1)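 Inhibition of labeled GTP binding is measured on immobilized His-KRas protein in Tris buffer pH 7.5 with 1 mM MgCl2 and 1 mM DTT.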

In assay [2] the target is KRas G12D/Q61H double mutant (Homo sapiens (Human), UniProt P01116, G12D/Q61H). The note with it: for inhibition at 20 µM: 20 μM compound. Summed up: as §1
KRas G12D/Q61H double mutant, sequence (P01116-2 other isoform, or with tags, fused parts or gaps G12D/Q61H): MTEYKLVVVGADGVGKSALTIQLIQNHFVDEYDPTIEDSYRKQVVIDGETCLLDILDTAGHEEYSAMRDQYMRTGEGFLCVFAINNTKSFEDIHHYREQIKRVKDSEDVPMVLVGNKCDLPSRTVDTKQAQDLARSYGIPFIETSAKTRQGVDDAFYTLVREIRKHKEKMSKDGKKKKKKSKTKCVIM
The target of assay [3] is KRas G12C/Q61H double mutant (Homo sapiens (Human), UniProt P01116, G12C/Q61H). The note with it: 20 μM compound. Put shortly:
as §1

Where [4] appears, read: read-out: % Inhibition at 20 μM KRas Q61H.
[5] abbreviates: read-out: % Inhibition at 20 μM KRas G12D Q61H.
[6] abbreviates: read-out: % Inhibition at 20 μM KRas G12C Q61H.
Where [7] appears, read: KRas Q61H, read-out: % Inhibition at 20 μM of K-Ras mutant and wild-type protein, KRas Q61H.
[8] abbreviates: KRas G12D/Q61H double mutant, read-out: % Inhibition at 20 μM of K-Ras mutant and wild-type protein, KRas G12D Q61H.
[9] abbreviates: KRas G12C/Q61H double mutant, read-out: % Inhibition at 20 μM of K-Ras mutant and wild-type protein, KRas G12C Q61H.

Like-named read-outs stand apart in the source and are kept apart here.

By inhibition is commonly meant the relative decrease from the control value, in per cent. The IC50 is the concentration that inhibits the measured activity by half.

KRas Q61H mutant, sequence (P01116-2 other isoform, or with tags, fused parts or gaps Q61H): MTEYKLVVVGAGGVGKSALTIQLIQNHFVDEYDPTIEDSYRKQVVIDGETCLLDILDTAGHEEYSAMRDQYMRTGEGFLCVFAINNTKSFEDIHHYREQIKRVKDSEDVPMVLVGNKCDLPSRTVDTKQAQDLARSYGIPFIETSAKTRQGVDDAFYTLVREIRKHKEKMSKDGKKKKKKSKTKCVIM
KRas G12C/Q61H double mutant, sequence (P01116-2 other isoform, or with tags, fused parts or gaps G12C/Q61H): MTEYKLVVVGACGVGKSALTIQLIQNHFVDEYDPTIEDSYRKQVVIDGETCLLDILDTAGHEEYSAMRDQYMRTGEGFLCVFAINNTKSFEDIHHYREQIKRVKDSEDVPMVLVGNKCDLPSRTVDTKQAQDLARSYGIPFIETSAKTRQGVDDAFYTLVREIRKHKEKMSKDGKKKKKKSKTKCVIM

As to `COc1cccc(N2CCN(C(=O)c3csc4c(O)nc(-c5ccccn5)nc34)CC2)c1` [drawing 2713], the inhibition at 20 µM is 51 to 75% in assay [1] (setting [4]), 1 to 25% in assay [2] (setting [5]) and 51 to 75% in assay [3] (setting [6]).

`Oc1nc(-c2ccccn2)nc2c(-c3cncc(F)c3)csc12` [drawing 3464]: the inhibition at 20 µM in assay [1] (setting [7]), in assay [2] (setting [8]) and in assay [3] (setting [9]) was 1 to 25% throughout.

As to `Oc1nc(-c2ccccn2)nc2c(CC3CCNCC3)csc12` [drawing 3486], the inhibition at 20 µM in assay [1] (setting [7]), in assay [2] (setting [8]) and in assay [3] (setting [9]) was 51 to 75% in each case.

As for `CC(C(=O)Nc1ccnc(-c2ccccn2)n1)c1ccc(C#N)cc1` (stereo not shown) [drawing 2794], the inhibition at 20 µM in assay [1] (setting [4]) was in the range of 51 to 75%; in assay [2] (setting [5]), 1 to 25%; in assay [3] (setting [6]) it was 51 to 75%.

Turning to `CC(C)(C(=O)Nc1ccnc(-c2ccccn2)n1)c1ccc(C#N)cc1` [drawing 2751], the results for the inhibition at 20 µM in assay [1] (setting [4]), in assay [2] (setting [5]) and in assay [3] (setting [6]) were 51 to 75%, 1 to 25% and 51 to 75%, respectively.

As for `Nc1nc(-c2ccccn2)nc2scc(C(=O)O)c12` [drawing 2906], the inhibition at 20 µM in assay [1] (setting [4]) lay in the range of 51 to 75%; in assay [2] (setting [5]), 25 to 50%; in assay [3] (setting [6]), 51 to 75%.

`Cc1sc2nc(-c3ccccn3)nc(N)c2c1Br` [drawing 3484]: the inhibition at 20 µM in assay [1] (setting [7]), in assay [2] (setting [8]) and in assay [3] (setting [9]) was 25 to 50% throughout.

Take `O=C(NCCc1cncnc1)c1csc2nc(-c3ccccn3)nc(N3CCOCC3)c12` [drawing 2784]: the results for the inhibition at 20 µM in assay [1] (setting [4]), in assay [2] (setting [5]) and in assay [3] (setting [6]) were 25 to 50%, 1 to 25% and 25 to 50%, respectively.

`O=C(NCCc1ccc(O)c(O)c1)c1csc2nc(-c3ccccn3)nc(N3CCOCC3)c12` [drawing 2785]: the figures for the inhibition at 20 µM in assay [1] (setting [4]), in assay [2] (setting [5]) and in assay [3] (setting [6]) were 1 to 25%, 0% and 25 to 50%, respectively.

Turning to `Oc1nc(-c2ccccn2)nc2c(-c3ccc(C4CCC4)cc3)csc12` [drawing 2865], the inhibition at 20 µM in assay [1] (setting [4]), in assay [2] (setting [5]) and in assay [3] (setting [6]) was 51 to 75% throughout.

Turning to `O=C(c1csc2c(O)nc(-c3ccccn3)nc12)N1CCNC(Cc2cccc(F)c2)C1` (stereo not shown) [drawing 2832], the inhibition at 20 µM in assay [1] (setting [4]), in assay [2] (setting [5]) and in assay [3] (setting [6]) was 51 to 75% in each case.

For `Oc1nc(-c2ccccn2)nc2c(-c3ccnn3-c3ccccn3)csc12` [drawing 2904], the figures for the inhibition at 20 µM in assay [1] (setting [4]), in assay [2] (setting [5]) and in assay [3] (setting [6]) were 25 to 50%, 1 to 25% and 25 to 50%, respectively.

As for `COc1cnc(CN)[nH]c1=O` [drawing 2801], the inhibition at 20 µM fell in the range of 25 to 50% in assay [1] (setting [4]), 25 to 50% in assay [2] (setting [5]) and 1 to 25% in assay [3] (setting [6]).

Take `COc1ccccc1C1CN(C(=O)c2csc3c(O)nc(-c4ccccn4)nc23)CCN1` (stereo not shown) [drawing 2772]: the results for the inhibition at 20 µM in assay [1] (setting [4]), in assay [2] (setting [5]) and in assay [3] (setting [6]) were 76 to 100%, 25 to 50% and 51 to 75%, respectively.

In the case of `Oc1nc(-c2ccccn2)nc2c(-c3ccccc3OC3CCCCC3)csc12` [drawing 2866], the inhibition at 20 µM in assay [1] (setting [4]), in assay [2] (setting [5]) and in assay [3] (setting [6]) was 51 to 75% each time.

In the case of `N#Cc1ccc2c(c1)CCCC2C(=O)Nc1ccnc(-c2ccccn2)n1` (stereo not shown) [drawing 2855], the inhibition at 20 µM in assay [1] (setting [4]), in assay [2] (setting [5]) and in assay [3] (setting [6]) was 51 to 75% throughout.

As to `O=C(NCCc1cncs1)c1csc2nc(-c3ccccn3)nc(N3CCOCC3)c12` [drawing 2749], the inhibition at 20 µM in assay [1] (setting [4]) is 25 to 50%; in assay [2] (setting [5]), 1 to 25%; in assay [3] (setting [6]), 25 to 50%.

`Oc1nc(-c2ccccn2)nc2cc(-c3ccc(-c4ccccc4)cc3)sc12` [drawing 3559]: the inhibition at 20 µM in assay [1] (setting [7]), in assay [2] (setting [8]) and in assay [3] (setting [9]) was 1 to 25% throughout.

Turning to `N#Cc1ccc(CCNC(=O)c2csc3nc(-c4ccccn4)nc(N4CCOCC4)c23)cc1` [drawing 2750], the inhibition at 20 µM in assay [1] (setting [4]), in assay [2] (setting [5]) and in assay [3] (setting [6]) was 1 to 25% in each case.

Consider `COc1cnc(CNC(=O)c2c(C)sc3c(O)nc(-c4ccccn4)nc23)[nH]c1=O` [drawing 3523], for which the inhibition at 20 µM in assay [1] (setting [7]) was 0%; in assay [2] (setting [8]) it was 0%; in assay [3] (setting [9]) it was 1 to 25%.

As for `Oc1nc(-c2ccccn2)nc2c(-c3cncc(C(F)(F)F)c3)csc12` [drawing 3466], the inhibition at 20 µM in assay [1] (setting [7]) was 1 to 25%; in assay [2] (setting [8]), 1 to 25%; in assay [3] (setting [9]), 0%.

On to `COc1ncc(CCNC(=O)c2csc3nc(-c4ccccn4)nc(N4CCOCC4)c23)cn1` [drawing 2748], for which the inhibition at 20 µM in assay [1] (setting [4]) fell in the range of 25 to 50%; in assay [2] (setting [5]) it was 1 to 25%; in assay [3] (setting [6]) it was 25 to 50%.

Regarding `CC(c1ccccc1)N1CCN(C(=O)c2csc3c(O)nc(-c4ccccn4)nc23)CC1` (stereo not shown) [drawing 2804], the inhibition at 20 µM lay in the range of 76 to 100% in assay [1] (setting [4]), 51 to 75% in assay [2] (setting [5]) and 51 to 75% in assay [3] (setting [6]). For the same molecule, the IC50 in assay [2] (serial dilution, read-out: KRas G12D Q61H (classes E-H, IC50)) is 11 to 30 µM.

In the case of `COc1cnc(CNC(=O)c2cc3nc(-c4ccccn4)nc(O)c3s2)[nH]c1=O` [drawing 3521], the inhibition at 20 µM lay within 51 to 75% in assay [1] (setting [7]), 25 to 50% in assay [2] (setting [8]) and 51 to 75% in assay [3] (setting [9]).

Regarding `N#Cc1cccc(N2CCN(C(=O)c3csc4c(O)nc(-c5ccccn5)nc34)CC2)c1` [drawing 2755], the inhibition at 20 µM in assay [1] (setting [4]) lay within 25 to 50%; in assay [2] (setting [5]), 1 to 25%; in assay [3] (setting [6]), 25 to 50%.

For the molecule `CC(C)(C)c1ccc(-c2csc3c(O)nc(-c4ccccn4)nc23)cc1` [drawing 2847], the inhibition at 20 µM in assay [1] (setting [4]), in assay [2] (setting [5]) and in assay [3] (setting [6]) was 51 to 75% each time.

With `Oc1nc(-c2ccccn2)nc2c3c(sc12)CNC3` [drawing 3477], the values for the inhibition at 20 µM in assay [1] (setting [7]), in assay [2] (setting [8]) and in assay [3] (setting [9]) were 76 to 100%, 51 to 75% and 76 to 100%, respectively.

`Cn1cnc(-c2nc(O)c3c(-c4ccccc4)c(-c4ccc(CNC(=O)OC(C)(C)C)cc4)sc3n2)c1` [drawing 3537]: the inhibition at 20 µM in assay [1] (setting [7]), in assay [2] (setting [8]) and in assay [3] (setting [9]) was 1 to 25% throughout.

As for `O=C(c1csc2c(O)nc(-c3ccccn3)nc12)N1CCOC(c2cccc(F)c2)C1` (stereo not shown) [drawing 2732], the inhibition at 20 µM was in the range of 1 to 25% in assay [1] (setting [4]), 25 to 50% in assay [2] (setting [5]) and 1 to 25% in assay [3] (setting [6]).

As to `O=C(c1csc2c(O)nc(-c3ccccn3)nc12)N1CCNC(c2ccc(Cl)cc2)C1` (stereo not shown) [drawing 3525], the inhibition at 20 µM in assay [1] (setting [7]) was in the range of 51 to 75%; in assay [2] (setting [8]) it was 25 to 50%; in assay [3] (setting [9]), 51 to 75%.

`COC(=O)c1c(C)sc2nc(-c3ccccn3)nc(N)c12` [drawing 3485]: the results for the inhibition at 20 µM in assay [1] (setting [7]), in assay [2] (setting [8]) and in assay [3] (setting [9]) were 25 to 50%, 51 to 75% and 25 to 50%, respectively.

Take `CC(C)(C(=O)Nc1nc(-c2ccccn2)nc2sccc12)c1ccc(C#N)cc1` [drawing 2752]: the inhibition at 20 µM is 1 to 25% in assay [1] (setting [4]), 0% in assay [2] (setting [5]) and 1 to 25% in assay [3] (setting [6]).

In the case of `N#Cc1ccc(N2CCN(C(=O)c3csc4c(O)nc(-c5ccccn5)nc34)CC2)cc1` [drawing 2756], the figures for the inhibition at 20 µM in assay [1] (setting [4]), in assay [2] (setting [5]) and in assay [3] (setting [6]) were 51 to 75%, 0% and 51 to 75%, respectively.

With `N#Cc1ccc(COCC(=O)Nc2ccnc(-c3ccccn3)n2)cc1` [drawing 2796], the inhibition at 20 µM in assay [1] (setting [4]) is 51 to 75%; in assay [2] (setting [5]), 0%; in assay [3] (setting [6]), 25 to 50%.

For `Cc1cncc(-c2csc3c(O)nc(-c4ccccn4)nc23)c1` [drawing 3467], the inhibition at 20 µM in assay [1] (setting [7]), in assay [2] (setting [8]) and in assay [3] (setting [9]) was 25 to 50% in each case.

As to `Cc1ccc(-c2cc3nc(-c4ccccn4)nc(O)c3s2)cc1` [drawing 3555], the figures for the inhibition at 20 µM in assay [1] (setting [7]), in assay [2] (setting [8]) and in assay [3] (setting [9]) were 0%, 0% and 1 to 25%, respectively.

Consider `Oc1nc(-c2ccccn2)nc2c(Br)c(-c3ccccc3)sc12` [drawing 3553], for which the inhibition at 20 µM was 1 to 25% in assay [1] (setting [7]), 0% in assay [2] (setting [8]) and 1 to 25% in assay [3] (setting [9]).

For `O=C(NCCc1ccncn1)c1csc2nc(-c3ccccn3)nc(N3CCOCC3)c12` [drawing 3500], the inhibition at 20 µM in assay [1] (setting [7]) lay within 51 to 75%; in assay [2] (setting [8]) it was 25 to 50%; in assay [3] (setting [9]) it was 25 to 50%.

`O=C(c1csc2c(O)nc(-c3ccccn3)nc12)N1CCNC(Cc2ccc(F)cc2)C1` (stereo not shown) [drawing 2831]: the inhibition at 20 µM in assay [1] (setting [4]), in assay [2] (setting [5]) and in assay [3] (setting [6]) was 51 to 75% each time.

On to `O=C(NCCc1ccnc(O)c1)c1csc2nc(-c3ccccn3)nc(N3CCOCC3)c12` [drawing 2783], for which the inhibition at 20 µM in assay [1] (setting [4]), in assay [2] (setting [5]) and in assay [3] (setting [6]) was 1 to 25% each time.
